Laboratory results published in patent US12404232B2, “Compounds and compositions for intracellular delivery of therapeutic agents” (ModernaTX, Inc., priority 2015, dated 2025).

How the values were obtained:
[1] = Encapsulation of RNA by the nanoparticle composition (QUANT-IT RIBOGREEN RNA assay); type: physicochemical
Description: The efficiency of encapsulation of a therapeutic and/or prophylactic describes the amount of therapeutic and/or prophylactic that is encapsulated or otherwise associated with a nanoparticle composition after preparation, relative to the initial amount provided. The encapsulation efficiency is desirably high (e.g., close to 100%). The encapsulation efficiency may be measured, for example, by comparing the amount of therapeutic and/or prophylactic in a solution containing the nanoparticle composition before and after breaking up the nanoparticle composition with one or more organic solvents or detergents. Fluorescence may be used to measure the amount of free therapeutic and/or prophylactic (e.g., RNA) in a solution. For the nanoparticle compositions described herein, the encapsulation efficiency of a therapeutic and/or prophylactic may be at least 50%, for example 50%, 55%, 60%, 65%, 70%, 75%, 80%, 85%, 90%, 91%, 92%, 93%, 94%, 95%, 96%, 97%, 98%, 99%, or 100%. In some embodiments, the encapsulation efficiency may be at least 80%. In certain embodiments, the encapsulation efficiency may be at least 90%.
For nanoparticle compositions including an RNA, a QUANT-IT™ RIBOGREEN® RNA assay (Invitrogen Corporation Carlsbad, CA) can be used to evaluate the encapsulation of an RNA by the nanoparticle composition. The samples are diluted to a concentration of approximately […] in a TE buffer solution (10 mM Tris-HCl, 1 mM EDTA, pH 7.5). 50 μL of the diluted samples are transferred to a polystyrene 96 well plate and either 50 μL of TE buffer or 50 μL of a 2% Triton X-100 solution is added to the wells. The plate is incubated at a temperature of 37° C. for 15 minutes. The RIBOGREEN® reagent is diluted 1:100 in TE buffer, and 100 μL of this solution is added to each well. The fluorescence intensity can be measured using a fluorescence plate reader (Wallac Victor 1420 Multilablel Counter; Perkin Elmer, Waltham, MA) at an excitation wavelength of, for example, about 480 nm and an emission wavelength of, for example, about 520 nm. The fluorescence values of the reagent blank are subtracted from that of each of the samples and the percentage of free RNA is determined by dividing the fluorescence intensity of the intact sample (without addition of Triton X-100) by the fluorescence value of the disrupted sample (caused by the addition of Triton X-100).
Initial studies were performed to compare the delivery efficiency of nanoparticle compositions including various compounds according to Formula (I), (IA), (II), (IIa), (IIb), (IIc), (IId) or (IIe). The cationic lipid MC3 is a current standard in the art. Accordingly, the standard MC3 formulation including about 50 mol % MC3, about 10 mol % DSPC, about 38.5 mol % cholesterol, and about 1.5 mol % PEG-DMG was used as a basis for this study. Nanoparticle compositions including DSPC as a phospholipid, cholesterol as a structural lipid, PEG-DMG as a PEG lipid, an RNA, and a compound according to Formula (I), (IA), (II), (IIa), (IIb), (IIc), (IId) or (IIe) selected from Compounds 1-159, 168-170, and 173-175 were prepared according to or via methods similar to those described in Examples 1 and 2. The ratios of the lipids were 50:10:38.5:1.5 mol % for the lipid according to Formula (I), (IA), (II), (IIa), (IIb), (IIc), (IId) or (IIe):DSPC:cholesterol:PEG-DMG. The RNA used was an mRNA encoding G5 luciferase (Luc) or G5 hEPO. Tables 1A-1B summarize the content and characteristics of the formulations. […]

mice [2] = test: Luc expression (bioluminescence, total flux) after intravenous administration to mice; type: in vivo; settings: Luc total flux (Table 3D)
Method: In order to monitor how effectively various nanoparticle compositions deliver therapeutic and/or prophylactics to targeted cells, different nanoparticle compositions including a particular therapeutic and/or prophylactic (for example, a modified or naturally occurring RNA such as an mRNA) are prepared and administered to rodent populations. Mice are intravenously, intramuscularly, intraarterially, or intratumorally administered a single dose including a nanoparticle composition with a formulation such as those provided in Example 3. In some instances, mice may be made to inhale doses. Dose sizes may range from 0.001 mg/kg to 10 mg/kg, where 10 mg/kg describes a dose including 10 mg of a therapeutic and/or prophylactic in a nanoparticle composition for each 1 kg of body mass of the mouse. A control composition including PBS may also be employed.
Upon administration of nanoparticle compositions to mice, dose delivery profiles, dose responses, and toxicity of particular formulations and doses thereof can be measured by enzyme-linked immunosorbent assays (ELISA), bioluminescent imaging, or other methods. For nanoparticle compositions including mRNA, time courses of protein expression can also be evaluated. Samples collected from the rodents for evaluation may include blood, sera, and tissue (for example, muscle tissue from the site of an intramuscular injection and internal tissue); sample collection may involve sacrifice of the animals.
The efficacy of the nanoparticle compositions presented in Table 1A was evaluated with a bioluminescence study. Formulations were administered intravenously to mice (n=6) at a dosage of 0.5 mg/kg (mpk) and bioluminescence measured at 3, 6, and 24 hour time points. The standard MC3 formulation and, in some instances, a control (e.g., a PBS control) were evaluated for comparison. […] In general, flux decreased as time progressed to less than 10% of the initial flux.
The total flux (measured by area under the curve, AUC) induced by administration of a formulation including a given lipid relative to that induced by administration of a formulation including MC3 was also measured for several lipids.
The tolerability and efficacy of nanoparticle compositions to non-human primates was also investigated using sample formulations including Compounds 18, 25, 26, and 48 and MC3 to determine if these compounds are differentiated in terms of protein expression. The formulations were prepared according to the standard MC3 formulation described above and included an hEPO mRNA. Table 30 includes details of the compositions tested, while Table 31 summarizes the relative expression of Luc and hEPO mRNA in mice and rats. Expression was measured 6 hours after administration.

[3] = Particle size and polydispersity index of nanoparticle compositions (Zetasizer Nano ZS); type: physicochemical; settings: for PDI: nanoparticle composition 50:10:38.5:1.5 mol % (Table 1A)
Method in brief: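 Particle size and PDI by Zetasizer Nano ZS dynamic light scattering in 1×PBS. Lipid nanoparticles carried mRNA (luciferase or hEPO) with ionizable lipid:DSPC:cholesterol:PEG-DMG at 50:10:38.5:1.5 mol %.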

mice [4] = test: Luc expression (total flux) after intramuscular administration; type: in vivo; settings: i.m., Luc, 6 h
mice [5] = test: Cytokine induction (IL-6, IP-10) in mice after intravenous administration; type: in vivo; set-up: IL-6 / IP-10: unit not given here; settings: 0.5 mpk; for IL-6 / IP-10: 6 hours
Description: The introduction of foreign material into a mammalian body induces an innate immune response that promotes cytokine production. Such immune responses to, for example, nanoparticle compositions including therapeutic and/or prophylactics, are undesirable. The induction of certain cytokines is thus measured to evaluate the […] of nanoparticle compositions. The concentrations of various cytokines in mice upon intravenous administration of nanoparticle compositions presented in Table 1A at a dosage of 0.5 mpk was measured at 6 hours. The standard MC3 formulation and a PBS control were also tested. As is evident in Table 7, IL-6 induction was highest for compositions including Compounds 1, 3, 9, 19, and 26, while IP-10 induction was highest for compositions including Compounds 3, 4, 7, 20, and 26. IL-6 induction was lowest for compositions including Compounds 4, 11, 12, and 28. IP-10 induction was lowest for compositions including Compounds 10, 11, 12, 13, 15, 17, and 18.
(§1) The expression of hEPO and cytokine induction in mice intravenously administered a nanoparticle composition at a dose of 0.5 mpk were measured at 3, 6, and 24 hours. […] The expression of hEPO in mice intramuscularly administered a nanoparticle composition from Table 1B at a dose of 0.01 mpk were measured at 3, 6, and 24 hours. […] (see also FIG. 9.)

mice [6] = test: hEPO expression in mice after intravenous administration; type: in vivo
Method: Sample formulations of nanoparticle compositions including different lipids are generally first evaluated according to Luc expression in vivo. The activity of several such compositions was further evaluated using an mRNA encoding hEPO. Nanoparticle compositions including Compounds 6, 18, 25, 30, 108-112, 60, and 122, or MC3 were prepared according to Example 2.
as §1
Table 12 compares the nanoparticle compositions including compounds according to Formula (I), (IA), (II), (IIa), (IIb), (IIc), (IId) or (IIe) to the compositions including MC3 on the basis of expression and flux levels. […] Thus, these lipids may be useful in nanoparticle composition therapeutics. […]

[7] = nanoparticle composition 50:10:38.5:1.5 mol % (Table 1A)
[8] = nanoparticle composition lipid:DSPC:cholesterol:PEG-DMG 50:10:38.5:1.5 mol %, mRNA encoding Luc or hEPO (Table 1A)

Row | Structure (SMILES) | EE (%) [1, 7] [%] | PDI [3] | Size (nm) [3, 8] [nm] | i.m. Lipid/MC3 0.01 mpk, Luc, 6h (mice [4]) | further results
1 | CCCCCCCCCOC(=O)CCCCCCCN(CCCCCCCC(=O)OC(CCCCCCCC)CCCCCCCC)C(C)CO (stereo not shown) [Compound 157, Heptadecan-9-yl 8-((1-hydroxypropan-2-yl)(8-(nonyloxy)-8-oxooctyl)amino)octanoate] | 96.43 | 0.096 | 69.6 | – | AUC (p/s*h) (mice [2]): 2.481E+011 p/s*h
2 | CCCCCCCCCOC(=O)CCCCCCCN(CCCCCCCC(=O)OC(CCCCCCCC)CCCCCCCC)CCCNS(C)(=O)=O [Compound 109, Heptadecan-9-yl 8-((3-(methylsulfonamido)propyl)(8-(nonyloxy)-8-oxooctyl)amino)octanoate] | – | – | – | 3.6 | –
3 | CCCCCCCCCOC(=O)CCCCCCCN(CCO)CCCCCCC(=O)OCC(CCCCCCCC)CCCCCCCC [Compound 143, Nonyl 8-((2-hydroxyethyl)(7-((2-octyldecyl)oxy)-7-oxoheptyl)amino)octanoate] | 96.4 | 0.19 | 93.3 | – | IL-6 (mice [5]): 6.245; IP-10 (mice [5]): 209.63
4 | CCCCC/C=C\C/C=C\CCCCCCCCN(CCO)CCCCCCCC(=O)OC(CCCCCCCC)CCCCCCCC [Compound 6, Heptadecan-9-yl 8-((2-hydroxyethyl)((9Z,12Z)-octadeca-9,12-dien-1-yl)amino)octanoate] | – | – | – | – | EE (%) ([1]; hEPO mRNA, (50:10:38.5:1.5) (Table 10)): 97.84%; IL-6 (mice [5]): 136.18; IP-10 (mice [5]): 316.01; Cytokine expression (pg/ml) IL-6 (6 h) (mice [5]; hEPO mRNA, 6 h): 10.15 pg/mL; Cytokine expression (pg/ml) IP-10 (6 h) (mice [5]; hEPO mRNA, 6 h): 116.66 pg/mL; hEPO concentrations compared with MC3 formulations at each time point (mice [6]; 0.5 mpk, 3, 6 and 24 hours): higher hEPO concentrations than MC3 formulations; hEPO expression (pg/ml) 3h (mice [6]; 0.5 mpk, 3 h): 2.31e+06 pg/mL; hEPO expression (pg/ml) 6 h (mice [6]; 0.5 mpk, 6 h): 3.17e+06 pg/mL; hEPO expression (pg/ml) 24 h (mice [6]; 0.5 mpk, 24 h): 1.11e+06 pg/mL; Size (nm) ([3]; hEPO mRNA, lipid:DSPC:Chol:PEG-DMG (50:10:38.5:1.5) (Table 10)): 70.5 nm
5 | CCCCCCCCCOC(=O)CCCCCCCN(CCCCCCCC(=O)OC(CCCCCCCC)CCCCCCCC)CCCN(C)S(C)(=O)=O [Compound 173, Heptadecan-9-yl 8-((3-(N-methylmethylsulfonamido)propyl)(8-(nonyloxy)-8-oxooctyl)amino)octanoate] | – | – | – | 0.6 | –

Now from value to compound, other results behind:

Row | EE (%) [1, 7] [%] | PDI [3] | Size (nm) [3, 8] [nm] | Structure (SMILES) | i.m. Lipid/MC3 0.01 mpk, Luc, 6h (mice [4]) | further results
6 | – | 0.18 | 75.4 | CCCCCCCCCOC(=O)CCCCCCCN(CCCCCCCC(=O)OC(CCCCCCCC)CCCCCCCC)CCCNc1c(N(C)C)c(=O)c1=O [Compound 169, Heptadecan-9-yl 8-((3-((2-(dimethylamino)-3,4-dioxocyclobut-1-en-1-yl)amino)propyl)(8-(nonyloxy)-8-oxooctyl)amino)octanoate] | 3.3 | –
7 | – | 0.12 | 61.4 | CCCCCCCCCOC(=O)CCCCCCCN(CCCCCCCC(=O)OC(CCCCCCCC)CCCCCCCC)CCCN1C(=O)CNC1=O [Compound 174, Heptadecan-9-yl 8-((3-(2,5-dioxoimidazolidin-1-yl)propyl)(8-(nonyloxy)-8-oxooctyl)amino)octanoate] | 0.2 | –
8 | – | 0.12 | 71.7 | CCCCCCCCCOC(=O)CCCCCCCN(CCCCCCCC(=O)OC(CCCCCCCC)CCCCCCCC)CCCN/C(=C/[N+](=O)[O-])NC [Compound 170, Heptadecan-9-yl (E)-8-((3-((1-(methylamino)-2-nitrovinyl)amino)propyl)(8-(nonyloxy)-8-oxooctyl)amino)octanoate] | 5.3 | –
9 | – | 0.14 | 79.3 | CCCCCCCCCOC(=O)CCCCCCCN(CCCCCCCC(=O)OC(CCCCCCCC)CCCCCCCC)CCCNC(=S)N(C)C [Compound 111, Heptadecan-9-yl 8-((3-(3,3-dimethylthioureido)propyl)(8-(nonyloxy)-8-oxooctyl)amino)octanoate] | 4.9 | –
10 | 93.23 | 0.2 | 65.4 | CCCCCCCCCOC(=O)CCCCCCCN(CCCCCCCC(=O)OC(CCCCCCCC)CCCCCCCC)CCCOC(=O)NC [Compound 175, Heptadecan-9-yl 8-((3-((methylcarbamoyl)oxy)propyl)(8-(nonyloxy)-8-oxooctyl)amino)octanoate] | 0.1 | –
